The subject of test [1] is Histone deacetylase (HDAC), HeLa cell nuclear extract. Description: In vitro fluorescent histone deacetylase assay (Biomol kit, HeLa cell nuclear extract). The class given is biochemical. The following applies: compound at 100 μM; HeLa cell nuclear extract as HDAC source; substrate 50 μM; 10 min at room temperature. The protocol: Histone deacetylase (HDAC) activity assays were performed using the HDAC fluorescent activity assay/drug discovery kit (Biomol Research Laboratories, Plymouth Meeting, Pa.) essentially according to the manufacturer's instructions. The included HeLa cell nuclear extract, which contains a mosaic of HDAC enzymes and other nuclear factors, was used as the source of HDAC activity. The final substrate concentration in the assay mixture was 50 μM. The reaction was allowed to proceed for 10 min at room temperature before stopping the reaction. Test compounds were prepared as 20 mM stock solutions in DMSO (Molecular Biology grade, Sigma-Aldrich Co. St. Louis, Mo.) and stored at −70° C. Serial dilutions of test compounds were prepared in assay buffer immediately prior to testing. DMSO was determined in a separate trial to have no significant effect on the activity of this assay at concentrations up to 5%; the final DMSO concentration in the wells was no more than 2% and therefore DMSO effects were safely neglected. Assays were performed in white polystyrene 96-well half-area assay plates (Corning, Corning, N.Y.) and measured on a Wallace 1420 fluorescent plate reader (Wallac Oy, Turku, Finland) with an excitation wavelength of 355 nm, an emission wavelength of 460 nm, and a 1 sec signal averaging time.

The subject of the next test is MCF7 cells. Description: Whole cell cytotoxicity assay: Sulforhodamine B. The following applies: compound at 100 μM, MCF7 cell growth, 48 hours with drug, SRB staining; for inhibition at 100 µM: Homo sapiens. The class given is cell-based, human. The protocol: The following procedure can be found on the Developmental Therapeutics Program NCI/NIH web site at http://dtp.nci.nih.gov/brancehes/btb/ivclsp.html.
1. Human tumor cell lines of HT29, A549 and MCF7 are grown in DMEM containing 10% fetal bovine serum and 2 mM L-glutamine. Cells are plated in a 96 well plate at a density of 5000 cells per well in 100 μL of growth medium and incubated at 37° C., 5% CO2, for 24 hours prior to the addition of experimental compounds.
2. Experimental drugs are solubilized in DMSO for a final concentration of 20 mM immediately prior to use. Drugs are further diluted in growth media for a total of nine drug concentrations and a growth control. At the 24 hour time point, one plate of cells is fixed in situ with TCA as a measurement of the cell population at time zero, or the time of drug addition.
3. The plates are further incubated with drug for an additional 48 hours.
4. The cells are fixed in situ by gently aspirating off the culture media and then adding 50 μL of ice cold 10% TCA per well and incubated at 4° C. for 60 minutes. The plates are washed with tap water five times and allowed to air dry for 5 minute.
5. 50 μL of a 0.4% (w/v) Sulforhodamine B solution in 1% (v/v) acetic acid is added per well and incubated for 30 minutes at room temperature.
6. Following staining, plates are washed five times with 1% acetic acid to remove any unbound dye and then allowed to air dry for 5 minutes.
7. Stain is solubilized with 100 μL of 10 mM Tris pH 10.5 per well and placed on an orbital rotator for 5 minutes.
8. Absorbance is read at 570 nm.
(Sulforhodamine B stains cellular protein and so reports cell mass.)

What is called inhibition is how much of the control response was suppressed.

As for “2-(4-{4-[(3-(pyrrolidin-1-ylmethyl)-2-furyl]phenylsulfonly}piperazin-1-yl)-1,3-thiazole-5-carboxylic acid hydroxyamide [Example 83]”, the “% inhibition HDAC @ 100 μM” value in test [1] is on record as 100%. Further, the “% inhibition MCF7 cells @ 100 μM” value in the test on MCF7 cells is 98%. For `COc1ccc(S(=O)(=O)N2CCN(c3ncc(C(=O)NO)s3)CC2)cc1OC` [Example 2, 2-[4-(3,4-dimethoxy-benzenesulfonyl)-piperazin-1-yl]-thiazole-5-carboxylic acid hydroxyamide], in test [1], the “% inhibition HDAC @ 100 μM” value amounted to 99%. Besides, at 100 µM the inhibition with MCF7 cells was 98.3%. With `O=C(NO)c1cnc(N2CCN(S(=O)(=O)c3ccc(OC(F)(F)F)cc3)CC2)s1` [Example 3, 2-[4-(4-trifluoromethoxy-benzenesulfonyl)-piperazin-1-yl]-thiazole-5-carboxylic acid hydroxyamide], the “% inhibition HDAC @ 100 μM” value in test [1] was found to be 93%. The same compound gave an inhibition at 100 µM in the test with MCF7 cells of 95.3%. Turning to `Cc1ccc(S(=O)(=O)N2CCN(c3ncc(C(=O)NO)s3)CC2)cc1` [Example 4, 2-[4-(4-toluene-4-sulfonyl)-piperazin-1-yl]-thiazole-5-carboxylic acid hydroxyamide], in test [1], the “% inhibition HDAC @ 100 μM” value is on record as 100%. Besides, 100 µM produced 95.4% inhibition in the test on MCF7 cells.

In the case of `O=C(NO)c1cnc(N2CCN(S(=O)(=O)c3ccc([N+](=O)[O-])cc3)CC2)s1` [Example 6, 2-[4-(4-nitro-benzenesulfonyl)-piperazin-1-yl]-thiazole-5-carboxylic acid hydroxyamide], the “% inhibition HDAC @ 100 μM” value in test [1] stood at 97%. In addition, in the test with MCF7 cells, the inhibition at 100 µM stood at 95.1%. Regarding `O=C(NO)c1cnc(N2CCN(S(=O)(=O)c3cccs3)CC2)s1` [Example 8, 2-[4-(thiophene-2-benzenesulfonyl)-piperazin-1-Yl]-thiazole-5-carboxylic acid hydroxyamide], in test [1], the “% inhibition HDAC @ 100 μM” value came to 98%. The compound also had an inhibition at 100 µM in the test on MCF7 cells of 90.1%. `O=C(NO)c1cnc(N2CCN(S(=O)(=O)c3ccc(-c4ccccc4)cc3)CC2)s1` [Example 9, 2-[4-(biphenyl-4-sulfonyl)-piperazin-1-yl]-thiazole-5-carboxylic acid hydroxyamide]: in test [1], the “% inhibition HDAC @ 100 μM” value is 97%. 100 µM produced 97.7% inhibition in the test with MCF7 cells. Taken in the same sequence, the figures for `CN(C)c1cccc2c(S(=O)(=O)N3CCN(c4ncc(C(=O)NO)s4)CC3)cccc12` [Example 10, 2-[4-(5-dimethylamino-naphthalene-1-sulfonyl)-piperazin-1-yl]-thiazole-5-carboxylic acid hydroxyamide] were 88% and 97.8%. On to `O=C(NO)c1cnc(N2CCN(S(=O)(=O)c3ccc(F)cc3)CC2)s1` [Example 11, 2-[4-(4-fluoro-benzenesulfonyl)-piperazin-1-yl]-thiazole-5-carboxylic acid hydroxyamide], for which the “% inhibition HDAC @ 100 μM” value in test [1] was found to be 98%. In the test on MCF7 cells, this compound displayed an inhibition at 100 µM of 96.7%. For `O=C(NO)c1cnc(N2CCN(S(=O)(=O)c3ccccc3)CC2)s1` [Example 12, 2-[4-(benzenesulfonyl)-piperazin-1-yl]-thiazole-5-carboxylic acid hydroxyamide] the same measures were 98% and 95.5%. Take `O=C(NO)c1cnc(N2CCN(S(=O)(=O)c3ccc(N4CCCC4)cc3)CC2)s1` [Example 13, 2-[4-(4-pyrolidinylbenzenesulfonyl)-piperazin-1-yl]-thiazole-5-carboxylic acid hydroxyamide]: in test [1], the “% inhibition HDAC @ 100 μM” value was 99%. Besides, at 100 µM the inhibition in the test with MCF7 cells was 98.9%. Consider `CN(C)S(=O)(=O)N1CCN(c2ncc(C(=O)NO)s2)CC1` [Example 14, 2-[4-(N,N-dimethylsulfonyl)-piperazin-1-yl]-thiazole-5-carboxylic acid hydroxyamide], for which the “% inhibition HDAC @ 100 μM” value in test [1] is 98%. Moreover, the inhibition at 100 µM with MCF7 cells stood at 89.8%. Take `CC(C)c1ccc(S(=O)(=O)N2CCN(c3ncc(C(=O)NO)s3)CC2)cc1` [Example 16, 2-[4-(4-isopropylphenylsulfonyl)-piperazin-1-yl]-thiazole-5-carboxylic acid hydroxyamide]: the “% inhibition HDAC @ 100 μM” value in test [1] stood at 100%. The same compound showed an inhibition at 100 µM with MCF7 cells of 90.9%. For the compound `O=C(NO)c1cnc(N2CCN(S(=O)(=O)c3cccc(Cl)c3)CC2)s1` [Example 18, 2-[4-(3-chlorophenylsulfonyl)-piperazin-1-yl]-thiazole-5-carboxylic acid hydroxyamide], the “% inhibition HDAC @ 100 μM” value in test [1] stood at 95%. The compound further registered an inhibition at 100 µM in the test with MCF7 cells of 96.6%. On to `CS(=O)(=O)c1ccc(S(=O)(=O)N2CCN(c3ncc(C(=O)NO)s3)CC2)cc1` [Example 19, 2-[4-(4-methylsufonylphenylsulfonyl)-piperazin-1-yl]-thiazole-5-carboxylic acid hydroxyamide], for which the “% inhibition HDAC @ 100 μM” value in test [1] came out at 99%. Besides, testing at 100 µM with MCF7 cells gave an inhibition of 76.5%.

For `O=C(NO)c1cnc(N2CCN(S(=O)(=O)/C=C/c3ccccc3)CC2)s1` [Example 20, 2-[4-(trans-2-phenylethanelsulfonyl)piperazin-1-yl]-thiazole-5-carboxylic acid hydroxyamide], the “% inhibition HDAC @ 100 μM” value in test [1] came out at 97%. Further, the inhibition at 100 µM with MCF7 cells was 97.9%.

As for `Cc1ccccc1S(=O)(=O)N1CCN(c2ncc(C(=O)NO)s2)CC1` [Example 21, 2-[4-(2-methylphenylsulfonyl)piperazin-1-yl]-thiazole-5-carboxylic acid hydroxyamide], the “% inhibition HDAC @ 100 μM” value in test [1] is reported as 100%. The inhibition at 100 µM with MCF7 cells turned out to be 97.1%. `Cc1cccc(S(=O)(=O)N2CCN(c3ncc(C(=O)NO)s3)CC2)c1` [Example 22, 2-[4-(3-methylphenylsulfonyl)-piperazin-1-yl]-thiazole-5-carboxylic acid hydroxyamide]: in test [1], the “% inhibition HDAC @ 100 μM” value was 100%. This compound also showed an inhibition at 100 µM in the test with MCF7 cells of 98%.

As to `CCCc1ccc(S(=O)(=O)N2CCN(c3ncc(C(=O)NO)s3)CC2)cc1` [Example 23, 2-[4-(4-n-propylphenylsulfonyl)-piperazin-1-yl]-thiazole-5-carboxylic acid hydroxyamide], the “% inhibition HDAC @ 100 μM” value in test [1] worked out at 99%. Further, 100 µM produced 96.7% inhibition in the test with MCF7 cells.

Consider `Cc1cc(C)cc(S(=O)(=O)N2CCN(c3ncc(C(=O)NO)s3)CC2)c1` [Example 24, 2-[4-(3,5-dimethylphenylsulfonyl)-piperazin-1-yl]-thiazole-5-carboxylic acid hydroxyamide], for which, in test [1], the “% inhibition HDAC @ 100 μM” value came out at 100%. This compound yielded an inhibition at 100 µM in the test on MCF7 cells of 95.3%.

Regarding `CC(C)(C)c1ccc(S(=O)(=O)N2CCN(c3ncc(C(=O)NO)s3)CC2)cc1` [Example 25, 2-[4-(4-t-butylphenylsulfonyl)-piperazin-1-yl]-thiazole-5-carboxylic acid hydroxyamide], the “% inhibition HDAC @ 100 μM” value in test [1] is 98%. For the same compound, in the test on MCF7 cells, the inhibition at 100 µM turned out to be 90.1%. Take `O=C(NO)c1cnc(N2CCN(S(=O)(=O)Cc3ccccc3)CC2)s1` [Example 26, 2-[4-(benzylsulfonyl)piperazin-1-yl]-thiazole-5-carboxylic acid hydroxyamide]: in test [1], the “% inhibition HDAC @ 100 μM” value was determined as 98%. Further, the inhibition at 100 µM with MCF7 cells came out at 90%. Consider `Cc1noc(C)c1S(=O)(=O)N1CCN(c2ncc(C(=O)NO)s2)CC1` [Example 27, 2-[4-(3,5-dimethylisoxazolesulfonyl)-pipiperazin-1-yl]-thiazole-5-carboxylic acid hydroxyamide], for which the “% inhibition HDAC @ 100 μM” value in test [1] amounted to 99%. The compound also came in with an inhibition at 100 µM with MCF7 cells of 88.5%. Compound `CCc1ccc(S(=O)(=O)N2CCN(c3ncc(C(=O)NO)s3)CC2)cc1` [Example 100, 2-[4-(4-Ethylbenzenesulfonyl)piperazin-1-yl]-thiazole-5-carboxylic acid hydroxyamide] gave an inhibition at 100 µM in the test on MCF7 cells of 96.8%. For `O=C(NO)c1cnc(N2CCN(S(=O)(=O)c3ccc(-n4cccn4)cc3)CC2)s1` [Example 101, 2-[4-(4-pyrazolylbenzenesulfonyl)-piperazin-1-yl]-thiazole-5-carboxylic acid hydroxyamide], the inhibition at 100 µM in the test with MCF7 cells is 98.1%.

For the origin of these results see patent publication US20050197336A1 (Miikana Therapeutics Corporation, priority 2004, published 2005).
